Holding throughout (assay type): cell-based
Series [1] deals with Vero (kidney epithelial cells; ATCC CCL-81). As to the kind of experiment: Cytotoxicity assay (CellTiter-Glo cell viability, 72 hours). To be noted: Vero cells, 72 hours, growth inhibition; read-out: Cytotoxicity IC50. The gist of the method: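 Viability measured by CellTiter-Glo luminescence after 72-hour compound exposure (serial dilutions, DMSO control) of Vero monolayers seeded at 5000 cells/well in 10% FBS DMEM. IC50 values are the range of two biologically independent experiments, each run in duplicate.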
A general note: In ATP-based viability assays light output follows the ATP content of the culture.

The subject of series [2] is Streptococcus pneumoniae, R6. As to the kind of experiment: Minimal inhibitory concentration assay. As to conditions: read-out: Minimal Inhibitory Concentrations S. pneumoniae R6. The gist of the method:
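Microbroth dilution with two-fold serial compound dilutions in broth, incubated aerobically overnight at 37° C. MIC taken as the lowest concentration preventing bacterial growth.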

In series [3] the test system is Streptococcus pyogenes, ATCC 700294. As to the kind of experiment: Minimal inhibitory concentration assay (microbroth dilution). As to conditions: Streptococcus pyogenes, ATCC700294, read-out: Minimal Inhibitory Concentrations S. pyogenes ATCC 700294. The gist of the method: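 Plates with two-fold compound dilution series in broth were incubated overnight, aerobically, at 37° C, following CLSI microdilution guidance.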
(Dilution methods test growth across graded concentrations, often in twofold steps.)

Series [4] has as its system Staphylococcus aureus, ATCC 29213. The series is described as above. To be noted: ATCC29213, read-out: Minimal Inhibitory Concentrations S. aureus ATCC 29213. The gist of the method: (§1)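 Compound is serially diluted two-fold in the appropriate broth, and bacterial inoculum at about 10^5 cfu/mL is added so the highest final concentration is 200 μM. Plates stay overnight at 37 °C under aerobic conditions before growth is scored by eye.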

In series [5] the test system is Enterococcus faecalis, ATCC 33186. The series is described as above. As to conditions: Enterococcus faecalis, ATCC33186, read-out: Minimal Inhibitory Concentrations E. faecalis ATCC 33186. The gist of the method:
as §1

Series [6] deals with Staphylococcus aureus, NRS70. The series is described as above. To be noted: Staphylococcus aureus, NRS70, read-out: Minimal Inhibitory Concentrations S. aureus NRS70. In outline:
as §1

The subject of series [7] is Bacillus subtilis, ATCC 23857. The series is described as above. As to conditions: Bacillus subtilis, ATCC23857, read-out: Minimal Inhibitory Concentrations B. subtilis ATCC 23857. In outline:
as §1

The subject of series [8] is Staphylococcus aureus, USA 300. The experiment in a line: Minimal inhibitory concentration assay. As to conditions: USA300, read-out: Minimal Inhibitory Concentrations S. aureus USA 300. In outline: as §1
Series [9] relates to Staphylococcus aureus, USA 300 wherein ClpP is inactivated. The experiment in a line: Minimal inhibitory concentration assay. In outline:
as §1

Broadly, the IC50 is the point on the concentration scale where inhibition reaches its midpoint.

Each structure is given as a SMILES string. In brackets after ≈: the same amount, converted by molar mass. *1 amine or outer side, *2 acyl side, *3 side chain or, on linkers, in order; H or OH if unused. Where a SMILES comes first, the peptide text is derived from it. Bridges are numbered along the chain shown (N, C = ends). [ ]: non-standard residue; d: D form. The star is where a group is joined. Phe(3,5-F2) = N[C@@H](Cc1cc(F)cc(F)c1)C(=O)O; NHPh(4-CF3) = FC(F)(F)c1ccc(N*)cc1; NH(4-Me-phenyl) = Cc1ccc(N*)cc1; aThr = C[C@H](O)[C@H](N)C(=O)O; Pip = O=C(O)[C@@H]1CCCCN1; CO = O=C([*:1])[*:2] A value given as a limit tells only on which side of the number the result lay.

For the molecule `Cc1ccc(NC(=O)N[C@@H](Cc2cc(F)cc(F)c2)C(=O)N[C@@H]2C(=O)N3CCC[C@H]3C(=O)N3CCCC[C@H]3C(=O)N[C@@H](C)C(=O)N3CCC[C@H]3C(=O)O[C@H]2C)cc1` [Compound 15, (S)-3-(3,5-difluorophenyl)-N-((6S,8aS,14aS,20S,21S,23aS)-6,21-dimethyl-5,8,14,19,23-pentaoxooctadecahydro-1H,5H,14H,19H-pyrido[2,1-i]dipyrrolo[2,1-c:2′,1′-l][1]oxa[4,7,10,13]tetraazacyclohexadecin-20-yl)-2-(3-(p-tolyl)ureido)propanamide] ({NH(4-Me-phenyl)-CO}-[Phe(3,5-F2)][aThr]P[Pip]AP; ester 2-C), the concentration for half-maximal inhibition (IC50) in [1] stood at 39.7 ± 6.6 µM. The MIC in series [2] is 0.3 µM (≈ 0.238 µg/mL); in series [3] it was 0.6 µM (≈ 0.476 µg/mL); in series [4], 0.6 µM (≈ 0.476 µg/mL); in series [5], 0.3 µM (≈ 0.238 µg/mL); in series [6], 0.3 µM (≈ 0.238 µg/mL); in [7], < 0.1 µM. Besides, in series [8], the MIC is < 0.1 µM. Moreover, the “Minimal Inhibitory Concentrations S. aureus USA 300 ΔClpP” value in [9] was found to be 100 µM.
Take `C[C@@H]1NC(=O)[C@@H]2CCCCN2C(=O)[C@@H]2CCCN2C(=O)[C@@H](NC(=O)[C@H](Cc2cc(F)cc(F)c2)NC(=O)Nc2ccc(C(F)(F)F)cc2)[C@H](C)OC(=O)[C@@H]2CCCN2C1=O` [Compound 16, (S)-3-(3,5-difluorophenyl)-N-((6S,8aS,14aS,20S,21S,23aS)-6,21-dimethyl-5,8,14,19,23-pentaoxooctadecahydro-1H,5H,14H,19H-pyrido[2,1-i]dipyrrolo[2,1-c:2′,1′-l][1]oxa[4,7,10,13]tetraazacyclohexadecin-20-yl)-2-(3-(4-(trifluoromethyl)phenyl)ureido)propanamide] ({NHPh(4-CF3)-CO}-[Phe(3,5-F2)][aThr]P[Pip]AP; ester 2-C): the half-maximal inhibitory concentration (IC50) in [1] was found to be 74.3 ± 9 µM. Moreover, the MIC is 0.8 µM (≈ 0.678 µg/mL) in series [2]; 1.5 µM (≈ 1.27 µg/mL) in series [3]; 0.4 µM (≈ 0.339 µg/mL) in series [4]; < 0.1 µM in series [5]; 0.8 µM (≈ 0.678 µg/mL) in series [6]; 0.4 µM (≈ 0.339 µg/mL) in series [7]. Moreover, in series [8], the MIC worked out at 0.8 µM (≈ 0.678 µg/mL). Further, in [9], the “Minimal Inhibitory Concentrations S. aureus USA 300 ΔClpP” value turned out to be 3.1 µM.
For `Cc1ccc(NC(=O)N[C@@H](Cc2ccccc2)C(=O)N[C@H]2COC(=O)[C@@H]3C[C@@H](C)CN3C(=O)[C@H](C)NC(=O)[C@@H]3CCCCN3C(=O)[C@@H]3CCCN3C2=O)cc1` [Compound 23, (S)—N-((2R,6S,8aS,14aS,20S,23aS)-2,6-dimethyl-5,8,14,19,23-pentaoxooctadecahydro-1H,5H,14H,19H-pyrido[2,1-i]dipyrrolo[2,1-c:2′,1′-l][1]oxa[4,7,10,13]tetraazacyclohexadecin-20-yl)-3-phenyl-2-(3-(p-tolyl)ureido)propanamide], the IC50 in series [1] was 74 ± 7.7 µM. Besides, the MIC in series [2] was < 0.2 µM; in [3], < 0.2 µM; in series [4] it was 0.4 µM (≈ 0.303 µg/mL); in [5] it was < 0.2 µM; in series [6] it was 0.4 µM (≈ 0.303 µg/mL); in series [7] it was < 0.2 µM. Also, in series [8], the MIC stood at 0.1 µM (≈ 0.0758 µg/mL).
Consider `Cc1ccc(NC(=O)N[C@@H](Cc2ccccc2)C(=O)N[C@H]2COC(=O)C3C[C@H](C)CN3C(=O)[C@H](C)NC(=O)C3CCCCN3C(=O)C3CCCN3C2=O)cc1` (stereo partly drawn) [Compound 43, (S)—N-((2S,6S,8aS,14aS,20S,23aS)-2,6-dimethyl-5,8,14,19,23-pentaoxooctadecahydro-1H,5H,14H,19H-pyrido[2,1-i]dipyrrolo[2,1-c:2′,1′-l][1]oxa[4,7,10,13]tetraazacyclohexadecin-20-yl)-3-phenyl-2-(3-(p-tolyl)ureido)propanamide], for which the IC50 in [1] is 74.5 ± 8.8 µM. Also, the MIC in series [2] worked out at 0.2 µM (≈ 0.152 µg/mL); in series [3], 0.8 µM (≈ 0.606 µg/mL); in series [4] it was 1.6 µM (≈ 1.21 µg/mL); in series [6] it was 1.6 µM (≈ 1.21 µg/mL); in series [7], 0.4 µM (≈ 0.303 µg/mL); in series [8] it was 3.1 µM (≈ 2.35 µg/mL). The “Minimal Inhibitory Concentrations S. aureus USA 300 ΔClpP” value in series [9] was >200 µM.
